# Laboratory results from PubChem BioAssay AID1963963 (Molecular Pharmacology Branch, DTP, NCI, 2024).
# Test system: 958667-338-R-J2-PDC tumor spheroids viability
# Test: Anticancer human tumor 958667-338-R-J2-PDC patient-derived colon adenocarcinoma cell line growth inhibition [PI3K]
# Settings: spheroids with HUVEC and MSC; for IC50: curve of first compound; for viability, T/C: stronger effect = lower value
# In short: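 We assembled tumor spheroids that included a stromal compartment of HUVEC and MSCs, then exposed them to targeted agents alone and together with PI3K pathway inhibitors. Concentration series descended by half-log from clinically achievable Cmax levels. Viability served as the endpoint.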
# [1] = second compound 0.00316 µM, first compound 0.0316 µM
# [2] = second compound 0.00316 µM, first compound 0.1 µM
# [3] = second compound 0.00316 µM, first compound 0.316 µM
# [4] = second compound 0.00316 µM, first compound 1 µM
# [5] = second compound 0.01 µM, first compound 0.0316 µM
# [6] = second compound 0.01 µM, first compound 0.1 µM
# [7] = second compound 0.01 µM, first compound 0.316 µM
# [8] = second compound 0.01 µM, first compound 1 µM
# [9] = second compound 0.0316 µM, first compound 0.0316 µM
# [10] = second compound 0.0316 µM, first compound 0.1 µM
# [11] = second compound 0.0316 µM, first compound 0.316 µM
# [12] = second compound 0.0316 µM, first compound 1 µM
# [13] = second compound 0.1 µM, first compound 0.0316 µM
# [14] = second compound 0.1 µM, first compound 0.1 µM
# [15] = second compound 0.1 µM, first compound 0.316 µM
# [16] = second compound 0.1 µM, first compound 1 µM
# [17] = second compound 0.316 µM, first compound 0.0316 µM
# [18] = second compound 0.316 µM, first compound 0.1 µM
# [19] = second compound 0.316 µM, first compound 0.316 µM
# [20] = second compound 0.316 µM, first compound 1 µM
# [21] = second compound 1 µM, first compound 0.0316 µM
# [22] = second compound 1 µM, first compound 0.1 µM
# [23] = second compound 1 µM, first compound 0.316 µM
# [24] = second compound 1 µM, first compound 1 µM
# [25] = second compound 0.00316 µM, first compound 3.16 µM
# [26] = second compound 0.00316 µM, first compound 10 µM
# [27] = second compound 0.01 µM, first compound 3.16 µM
# [28] = second compound 0.01 µM, first compound 10 µM
# [29] = second compound 0.0316 µM, first compound 3.16 µM
# [30] = second compound 0.0316 µM, first compound 10 µM
# [31] = second compound 0.1 µM, first compound 3.16 µM
# [32] = second compound 0.1 µM, first compound 10 µM
# [33] = second compound 0.316 µM, first compound 3.16 µM
# [34] = second compound 0.316 µM, first compound 10 µM
# [35] = second compound 1 µM, first compound 3.16 µM
# [36] = second compound 1 µM, first compound 10 µM
# 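Also: spheroids exposed to compounds for seven days before readout.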
compound,measurement,setting,value
CCN1CCN(Cc2ccc(Nc3ncc(F)c(-c4cc(F)c5nc(C)n(C(C)C)c5c4)n3)nc2)CC1 + COc1c(OCCCN2CCOCC2)ccc2c3n(c(=NC(=O)c4cnc(N)nc4)nc12)CCN3,IC50,second compound 0.00316 µM,> 1000 nM
same,IC50,second compound 0.01 µM,> 1000 nM
same,IC50,second compound 0.0316 µM,344 nM
same,IC50,second compound 0.1 µM,4.7 nM
same,IC50,second compound 0.316 µM,< 3.16 nM
same,IC50,second compound 1 µM,< 3.16 nM
same,"viability, T/C","second compound 0.00316 µM, first compound 0.00316 µM",100%
same,"viability, T/C","second compound 0.00316 µM, first compound 0.01 µM",106%
same,"viability, T/C",[1],82.9%
same,"viability, T/C",[2],67.2%
same,"viability, T/C",[3],68.3%
same,"viability, T/C",[4],64.3%
same,"viability, T/C","second compound 0.01 µM, first compound 0.00316 µM",69.7%
same,"viability, T/C","second compound 0.01 µM, first compound 0.01 µM",87.8%
same,"viability, T/C",[5],87.8%
same,"viability, T/C",[6],65.5%
same,"viability, T/C",[7],57.4%
same,"viability, T/C",[8],51.5%
same,"viability, T/C","second compound 0.0316 µM, first compound 0.00316 µM",67.5%
same,"viability, T/C","second compound 0.0316 µM, first compound 0.01 µM",61.2%
same,"viability, T/C",[9],58.6%
same,"viability, T/C",[10],57.3%
same,"viability, T/C",[11],48.4%
same,"viability, T/C",[12],46.1%
same,"viability, T/C","second compound 0.1 µM, first compound 0.00316 µM",53.9%
same,"viability, T/C","second compound 0.1 µM, first compound 0.01 µM",41.4%
same,"viability, T/C",[13],40.1%
same,"viability, T/C",[14],39%
same,"viability, T/C",[15],33.6%
same,"viability, T/C",[16],32.1%
same,"viability, T/C","second compound 0.316 µM, first compound 0.00316 µM",34.4%
same,"viability, T/C","second compound 0.316 µM, first compound 0.01 µM",33.4%
same,"viability, T/C",[17],33.8%
same,"viability, T/C",[18],22.3%
same,"viability, T/C",[19],22.2%
same,"viability, T/C",[20],25.3%
same,"viability, T/C","second compound 1 µM, first compound 0.00316 µM",16.9%
same,"viability, T/C","second compound 1 µM, first compound 0.01 µM",14.7%
same,"viability, T/C",[21],16.5%
same,"viability, T/C",[22],14.3%
same,"viability, T/C",[23],16.6%
same,"viability, T/C",[24],18.1%
Cn1ncc(Cl)c1-c1cc(C(=O)NC(CN)Cc2cccc(F)c2)sc1Cl (stereo unspecified) + COc1c(OCCCN2CCOCC2)ccc2c3n(c(=NC(=O)c4cnc(N)nc4)nc12)CCN3,IC50,second compound 0.00316 µM,3410 nM
same,IC50,second compound 0.01 µM,3240 nM
same,IC50,second compound 0.0316 µM,1700 nM
same,IC50,second compound 0.1 µM,696 nM
same,IC50,second compound 0.316 µM,< 31.6 nM
same,IC50,second compound 1 µM,< 31.6 nM
same,"viability, T/C",[1],89.1%
same,"viability, T/C",[2],109%
same,"viability, T/C",[3],75.5%
same,"viability, T/C",[4],76.2%
same,"viability, T/C",[25],46.4%
same,"viability, T/C",[26],43%
same,"viability, T/C",[5],88.9%
same,"viability, T/C",[6],76.7%
same,"viability, T/C",[7],87.8%
same,"viability, T/C",[8],75.5%
same,"viability, T/C",[27],50.6%
same,"viability, T/C",[28],32%
same,"viability, T/C",[9],90.3%
same,"viability, T/C",[10],74.6%
same,"viability, T/C",[11],76.2%
same,"viability, T/C",[12],58.6%
same,"viability, T/C",[29],38.9%
same,"viability, T/C",[30],26.5%
same,"viability, T/C",[13],59.4%
same,"viability, T/C",[14],65.7%
same,"viability, T/C",[15],64.5%
same,"viability, T/C",[16],43.5%
same,"viability, T/C",[31],27.9%
same,"viability, T/C",[32],21.1%
same,"viability, T/C",[17],44.9%
same,"viability, T/C",[18],38.8%
same,"viability, T/C",[19],32.9%
same,"viability, T/C",[20],31.6%
same,"viability, T/C",[33],21.1%
same,"viability, T/C",[34],14.1%
same,"viability, T/C",[21],20.8%
same,"viability, T/C",[22],18.2%
same,"viability, T/C",[23],19.9%
same,"viability, T/C",[24],20.5%
same,"viability, T/C",[35],15.9%
same,"viability, T/C",[36],12.5%
Cn1nccc1Nc1nccc(-c2ccn(C(CO)c3ccc(Cl)c(F)c3)c(=O)c2)n1 (stereo unspecified) + COc1c(OCCCN2CCOCC2)ccc2c3n(c(=NC(=O)c4cnc(N)nc4)nc12)CCN3,IC50,second compound 0.00316 µM,9710 nM
same,IC50,second compound 0.01 µM,7700 nM
same,IC50,second compound 0.0316 µM,2720 nM
same,IC50,second compound 0.1 µM,1270 nM
same,IC50,second compound 0.316 µM,< 31.6 nM
same,IC50,second compound 1 µM,< 31.6 nM
same,"viability, T/C",[1],93.8%
same,"viability, T/C",[2],98.4%
same,"viability, T/C",[3],97.9%
same,"viability, T/C",[4],83.5%
same,"viability, T/C",[25],67.1%
same,"viability, T/C",[26],49.3%
same,"viability, T/C",[5],98.6%
same,"viability, T/C",[6],100%
same,"viability, T/C",[7],99.1%
same,"viability, T/C",[8],83.3%
same,"viability, T/C",[27],81.6%
same,"viability, T/C",[28],41.2%
same,"viability, T/C",[9],80.3%
same,"viability, T/C",[10],86.7%
same,"viability, T/C",[11],83.1%
same,"viability, T/C",[12],57.1%
same,"viability, T/C",[29],52.3%
same,"viability, T/C",[30],25.6%
same,"viability, T/C",[13],58.6%
same,"viability, T/C",[14],55.4%
same,"viability, T/C",[15],60%
same,"viability, T/C",[16],55.6%
same,"viability, T/C",[31],27.7%
same,"viability, T/C",[32],12%
same,"viability, T/C",[17],30.9%
same,"viability, T/C",[18],42.4%
same,"viability, T/C",[19],28.8%
same,"viability, T/C",[20],31.9%
same,"viability, T/C",[33],15.4%
same,"viability, T/C",[34],1.75%
same,"viability, T/C",[21],16.9%
same,"viability, T/C",[22],13.1%
same,"viability, T/C",[23],18.1%
same,"viability, T/C",[24],13.6%
same,"viability, T/C",[35],3.23%
same,"viability, T/C",[36],1.67%
